Reference: the NIST ThermoML archive (doi:10.1016/j.tca.2019.178318)
Numbers after ± are expanded uncertainties. One block for each molecule: values may come before it.

Settings: Liquid, Ebulliometric method (Recirculating still)

- vapor or sublimation pressure (428.64 K): 101.33 ± 4.1 kPa
- vapor or sublimation pressure (428.65 K): 101.33 ± 4.1 kPa
SMILES: CC1=CCC2CC1C2(C)C (stereo unspecified) [2-pinene]

- vapor or sublimation pressure (432.73 K): 101.33 ± 4.1 kPa
- vapor or sublimation pressure (432.74 K): 101.33 ± 4.1 kPa
- vapor or sublimation pressure (432.76 K): 101.33 ± 4.1 kPa
- vapor or sublimation pressure (432.8 K): 101.33 ± 4.1 kPa
SMILES: C=C1C2CCC(C2)C1(C)C (stereo unspecified) [2,2-dimethyl-3-methylenebicyclo[2.2.1]heptane]

- vapor or sublimation pressure (449.7 K): 101.33 ± 4.1 kPa
SMILES: Cc1ccc(C(C)C)cc1 [1-(1-methylethyl)-4-methylbenzene]

- vapor or sublimation pressure (442.63 K): 101.33 ± 4.1 kPa
SMILES: CC1=CC[C@@H]2[C@H](C1)C2(C)C [(+)-3-carene]

- vapor or sublimation pressure (526.4 K): 101.33 ± 4.1 kPa
- vapor or sublimation pressure (526.47 K): 101.33 ± 4.1 kPa
- vapor or sublimation pressure (526.53 K): 101.33 ± 4.1 kPa
SMILES: C=C1CC/C=C(\C)CC[C@@H]2[C@@H]1CC2(C)C
